Measurements as given in patent US11241477B2, “Oxytocin compositions for treatment of tinnitus” (New York University, priority 2019, dated 2022).

System: tinnitus
Assay: clinical use of intranasal oxytocin formulations to treat tinnitus
Assay type: in vivo, human
Source text: In an aspect, this disclosure provides a method for treating tinnitus. The method comprises administering intranasally to an individual a composition comprising or consisting essentially of oxytocin, wherein such administration results in treatment of tinnitus. The effectiveness of treatment of tinnitus may be monitored by quantifying tinnitus, such as by self-evaluation using clinically accepted techniques. An example is the Tinnitus Handicap Inventory (“THI”), a validated and published measurement technique. (Newman et al., Arch Otolaryngol Head Neck Surg, 1996, February 122(2), 143-8). In an embodiment, the improvement in an individual using THI may comprise an improvement of at least 10%. In various embodiments, the improvement may comprise from 10-100%, such as at least 20, 30, 40, 50, 60, 70, 80, 90, 95, or 99%. This example describes clinical use of the present formulations to treat tinnitus. […] The formulation contained oxytocin, magnesium chloride, citric acid, and sodium citrate in sterile water. […] The dose was then increased to 45 IU (3 sprays of 15 IU) 4 times daily. […] A thickener was then added to the formulation keeping the oxytocin amount the same. […] Their score on the Tinnitus Handicap Inventory reduced from a pretreatment score of 96 (meaning a catastrophic level) to a current score of 14 (meaning mild or no tinnitus). The patient has remained improved over 1 year since initiating therapy. Their current dose is 22.5 IU in each nostril 4 times daily. Since their tinnitus occurs in distinct cycles, at times when tinnitus severity is loudest, they increase the dose to 5 times daily for 2 days. […] Their current handicap inventory is 8. […] The dose was increased to 45 IU 4 times daily resulting in a decrease in tinnitus volume by approximately 30%. In another patient, who developed constant tinnitus after a neck injury one year ago, a dose of 45 IU (22.5 IU in each nostril) 4 times daily was used for 30 days and is still ongoing. It has provided about 15% improvement. […] In another patient with constant tinnitus a dose of 30 IU 4 times daily has been started and treatment is ongoing.

[1] = patient with constant tinnitus, 30 IU 4 times daily, after 2 weeks
[2] = second patient, 45 IU twice daily

CC[C@H](C)[C@@H]1NC(=O)[C@H](Cc2ccc(O)cc2)NC(=O)[C@@H](N)CSSC[C@@H](C(=O)N2CCC[C@H]2C(=O)N[C@@H](CC(C)C)C(=O)NCC(N)=O)NC(=O)[C@H](CC(N)=O)NC(=O)[C@H](CCC(N)=O)NC1=O [oxytocin]
time remained improved since initiating therapy (first patient): over 1 year | current handicap inventory (first patient, 22.5 IU in each nostril 4 times daily, 5 times daily for 2 days when loudest): 8 | time without tinnitus (first patient, 22.5 IU in each nostril 4 times daily, 5 times daily for 2 days when loudest, past 3 months): ≤ 10 days | relief of tinnitus (first patient, 45 IU (3 sprays of 15 IU) 4 times daily, no thickener): significant relief | patient-reported benefit (first patient, 60 IU daily (30 IU twice daily), oxytocin, magnesium chloride, citric acid, sodium citrate in sterile water): partial benefit | score on the Tinnitus Handicap Inventory (first patient, formulation with thickener, pretreatment score 96 (catastrophic level)): 14 | relief of tinnitus (first patient, initial dose of less than 20 IU daily, intranasal): did not provide any relief | tinnitus free period (first patient, thickener added to the formulation, oxytocin amount the same (45 IU 4 times daily)): several days of tinnitus free period | relief of tinnitus (lower amounts of oxytocin (such as under 20 IU per day)): did not result in any significant relief | improvement (patient with constant tinnitus after neck injury, 45 IU (22.5 IU in each nostril) 4 times daily for 30 days): about 15% | tinnitus volume (patient with constant tinnitus after neck injury, dose raised to 5 times daily on occasions): diminished tinnitus volume | time without noticing the tinnitus [1]: several hours per day without noticing the tinnitus | tinnitus intensity [1]: tinnitus intensity has lowered | benefit (patient with drug-caused tinnitus, 30 IU twice daily): without benefit | decrease in tinnitus volume (patient with drug-caused tinnitus, 45 IU 4 times daily): approximately 30% | benefit [2]: significant benefit | reduction of tinnitus volume [2]: 45-60% | time remaining improved on dosing schedule [2]: more than a year | tinnitus free days [2]: some days in which they are tinnitus free
